Like-named read-outs stand apart in the source and are kept apart here.
Legend:
[1] = system: mitochondrial membrane potential; type: cell-based, mouse
[2] = system: cytochrome c; type: cell-based, mouse
[3] = system: C2C12 myotubes
[4] = system: nuOXPHOS transcripts; type: cell-based, mouse
[5] = system: reactive oxygen species; type: cell-based, mouse
[6] = system: mtOXPHOS transcripts; type: cell-based, mouse
[7] = system: cellular dehydrogenase activity
[8] = system: OXPHOS gene expression; type: cell-based, mouse
[9] = composite Z-score vs DMSO, Conc 20 μM
[10] = composite Z-score vs mock-treated (DMSO) wells, concentration of each compound in μM
[11] = normalized composite Z-score vs mock-treated (DMSO) wells, Conc 20 μM
[12] = composite Z-score vs mock-treated (DMSO) wells, Conc 20 μM
[13] = 20 μM, composite Z-score vs DMSO

SMILES: O=c1cc(-c2ccc(O)cc2)oc2cc(O[C@@H]3O[C@H](CO)[C@@H](O)[C@H](O)[C@H]3O)cc(O)c12 [cosmosiin]
- ΔΨm [1, 9]: 0.053
- cyt c [2, 9]: −0.009
- Viability [3, 9]: 0.141
- nucOX [4, 9]: −0.287
- ROS [5, 9]: −0.052
- mitoOX [6, 9]: −0.611
- MTT [7, 9]: −0.801
- GE-HTS [8, 9]: −0.433

SMILES: CC1(C)O[C@H]2CC(=O)OC[C@]23[C@H]2CC[C@@]4(C)[C@H](c5ccoc5)OC(=O)[C@H]5O[C@]54[C@]2(C)C(=O)C[C@@H]13 [limonin]
- ΔΨm [1, 9]: −0.668
- cyt c [2, 9]: 0.042
- Viability [3, 9]: −0.818
- nucOX [4, 9]: −0.317
- ROS [5, 9]: 1.165
- mitoOX [6, 9]: 0.127
- MTT [7, 9]: −1.564
- GE-HTS [8, 9]: −0.197

SMILES: COc1ccc(-c2cc(=O)c3c(OC)cc(OC)c(-c4cc(-c5cc(=O)c6c(OC)cc(OC)cc6o5)ccc4OC)c3o2)cc1 [dioonflavone]
- ΔΨm [1, 10]: 0.208
- cyt c [2, 10]: 0.605
- Viability [3, 10]: −0.003
- nucOX [4, 10]: −0.204
- ROS [5, 10]: 0.650
- mitoOX [6, 10]: −0.969
- MTT [7, 10]: −0.744
- GE-HTS [8, 10]: −0.471

SMILES: COc1ccc(-c2coc3c(OC)c(O)ccc3c2=O)cc1 [7-hydroxy-8,4′-dimethoxyisoflavone]
- ΔΨm [1, 11]: −0.417
- cyt c [2, 11]: 0.363
- Viability [3, 11]: −1.022
- nucOX [4, 11]: −0.994
- ROS [5, 11]: 1.404
- mitoOX [6, 11]: −0.667
- MTT [7, 11]: −1.073
- GE-HTS [8, 11]: −0.962

SMILES: NC[C@H]1O[C@H](O[C@H]2[C@H](O)[C@@H](O[C@H]3O[C@H](CO)[C@@H](O)[C@H](N)[C@H]3O)[C@H](N)C[C@@H]2N)[C@H](O)[C@@H](O)[C@@H]1O [kanamycin A]
- ΔΨm [1, 10]: −0.812
- cyt c [2, 10]: −0.131
- Viability [3, 10]: −1.015
- nucOX [4, 10]: −0.218
- ROS [5, 10]: 1.383
- mitoOX [6, 10]: −0.323
- MTT [7, 10]: −1.149
- GE-HTS [8, 10]: −0.270

SMILES: C=CC(C1=CC(=O)C(OC)=CC1=O)c1ccc(OC)cc1 (centres unmarked) [4,4′-dimethoxydalbergione]
- ΔΨm [1, 12]: −0.993
- cyt c [2, 12]: −1.432
- Viability [3, 12]: −0.207
- nucOX [4, 12]: −0.677
- ROS [5, 12]: −0.802
- mitoOX [6, 12]: −0.975
- MTT [7, 12]: −2.648
- GE-HTS [8, 12]: −0.842

SMILES: CCOC(=O)[C@H](CCc1ccccc1)N[C@@H](C)C(=O)N1Cc2ccccc2C[C@H]1C(=O)O [quinapril]
- ΔΨm [1, 13]: −0.276
- cyt c [2, 13]: 0.237
- Viability [3, 13]: 0.034
- nucOX [4, 13]: −0.127
- ROS [5, 13]: 1.175
- mitoOX [6, 13]: −0.130
- MTT [7, 13]: −1.111
- GE-HTS [8, 13]: −0.132

SMILES: NS(=O)(=O)c1cc(C2(O)NC(=O)c3ccccc32)ccc1Cl (centres unmarked) [chlorthalidone]
- ΔΨm [1]: −0.750
- ΔΨm [1, 13]: −0.257
- cyt c [2]: 0.531
- cyt c [2, 13]: 0.066
- Viability [3]: 0.081
- Viability [3, 13]: 0.308
- nucOX [4]: −0.009
- nucOX [4, 13]: 0.646
- ROS [5]: 1.047
- ROS [5, 13]: 1.655
- mitoOX [6]: −0.641
- mitoOX [6, 13]: 0.877
- MTT [7]: −1.736
- MTT [7, 13]: −1.134
- GE-HTS [8]: −0.236
- GE-HTS [8, 13]: 0.793

SMILES: C=C1C(=O)O[C@H]2C[C@@H]1C(OC(C)=O)C/C(C)=C/CC/C(C)=C/CC[C@@]2(C)O (some centres unmarked) [crassin acetate]
- ΔΨm [1, 12]: 0.374
- cyt c [2, 12]: −1.840
- Viability [3, 12]: −2.757
- nucOX [4, 12]: −0.685
- ROS [5, 12]: −1.394
- mitoOX [6, 12]: −0.703
- MTT [7, 12]: −1.220
- GE-HTS [8, 12]: −0.720

From US20090143279A1 (priority 2007, published 2009)
